In this assay the target is Bcl-2 G101V (Homo sapiens, UniProt P10415, G101V). Nature of the assay: Bcl-2 G101V inhibition, fluorescence polarization (Flu-BIM tracer) binding assay. The following applies: FP; 20 nM Bcl2, 5 nM Flu-BIM, 1 h incubation; read-out: Bcl-2 G101V (FP). (In general: In fluorescence polarisation assays a small probe gives low polarisation when free and higher when bound to something large.)

For `CC1(C)CCC(CN2CCN(c3ccc(C(=O)NS(=O)(=O)c4ccc(NC[C@H]5COCCO5)c([N+](=O)[O-])c4)c(Oc4cnc5[nH]ccc5c4)c3)CC2)=C(c2cc(-c3ccc(C(F)(F)F)cc3)cs2)C1` [Example 40, (S)—N-((4-(((1,4-dioxan-2-yl)methyl)amino)-3-nitrophenyl)sulfonyl)-2-((1H-pyrrolo[2,3-b]pyridin-5-yl)oxy)-4-(4-((4,4-dimethyl-2-(4-(4-(trifluoromethyl)phenyl)thiophen-2-yl)cyclohex-1-en-1-yl)methyl)piperazin-1-yl)benzamide], the IC50 was 43.4 nM.

Turning to `CC1(C)CCC(CN2CCN(c3ccc(C(=O)NS(=O)(=O)c4ccc(NC[C@H]5COCCO5)c([N+](=O)[O-])c4)c(Oc4cnc5[nH]ccc5c4)c3)CC2)=C(c2cc(Nc3ncccn3)cs2)C1` [Example 19, (S)—N-((4-(((1,4-dioxan-2-yl)methyl)amino)-3-nitrophenyl)sulfonyl)-2-((1H-pyrrolo[2,3-b]pyridin-5-yl)oxy)-4-(4-((4,4-dimethyl-2-(4-(pyrimidin-2-ylamino)thiophen-2-yl)cyclohex-1-en-1-yl)methyl)piperazin-1-yl)benzamide], the IC50 came to 40.9 nM.

Take `CC1(C)CCC(CN2CCN(c3ccc(C(=O)NS(=O)(=O)c4ccc(NC[C@H]5CC[C@](C)(O)CC5)c([N+](=O)[O-])c4)c(Oc4cnc5[nH]ccc5c4)c3)CC2)=C(c2cc(-c3ccc(C(O)(C(F)(F)F)C(F)(F)F)cc3)cs2)C1` [Example 60, 2-((1H-pyrrolo[2,3-b]pyridin-5-yl)oxy)-4-(4-((2-(4-(4-(1,1,1,3,3,3-hexafluoro-2-hydroxypropan-2-yl)phenyl)thiophen-2-yl)-4,4-dimethylcyclohex-1-en-1-yl)methyl)piperazin-1-yl)-N-((4-((((1r,4r)-4-hydroxy-4-methylcyclohexyl)methyl)amino)-3-nitrophenyl)sulfonyl)benzamide]: the IC50 was found to be 34.1 nM.

On to `CC1(C)CCC(CN2CCN(c3ccc(C(=O)NS(=O)(=O)c4ccc(NC[C@H]5CC[C@](C)(O)CC5)c([N+](=O)[O-])c4)c(Oc4cnc5[nH]ccc5c4)c3)CC2)=C(c2cc(-c3c(F)cc(C(C)(O)C4CC4)cc3F)cs2)C1` (stereo partly shown) [Example 69, 2-((1H-pyrrolo[2,3-b]pyridin-5-yl)oxy)-4-(4-((2-(4-(4-(1-cyclopropyl-1-hydroxyethyl)-2,6-difluorophenyl)thiophen-2-yl)-4,4-dimethylcyclohex-1-en-1-yl)methyl)piperazin-1-yl)-N-((4-((((1r,4r)-4-hydroxy-4-methylcyclohexyl)methyl)amino)-3-nitrophenyl)sulfonyl)benzamide], for which the IC50 was 29 nM.

`CC1(C)CCC(CN2CCN(c3ccc(C(=O)NS(=O)(=O)c4ccc(NC[C@H]5CC[C@](C)(O)CC5)c([N+](=O)[O-])c4)c(Oc4cnc5[nH]ccc5c4)c3)CC2)=C(c2cc(-c3ccc(F)cc3F)cs2)C1` [Example 43, 2-((1H-pyrrolo[2,3-b]pyridin-5-yl)oxy)-4-(4-((2-(4-(2,4-difluorophenyl)thiophen-2-yl)-4,4-dimethylcyclohex-1-en-1-yl)methyl)piperazin-1-yl)-N-((4-((((1r,4r)-4-hydroxy-4-methylcyclohexyl)methyl)amino)-3-nitrophenyl)sulfonyl)benzamide]: the IC50 was 33.7 nM.

As to `[2H]C([2H])([2H])C(O)(c1cc(F)c(-c2csc(C3=C(CN4CCN(c5ccc(C(=O)NS(=O)(=O)c6ccc(NC[C@H]7CC[C@](C)(O)CC7)c([N+](=O)[O-])c6)c(Oc6cnc7[nH]ccc7c6)c5)CC4)CCC(C)(C)C3)c2)c(F)c1)C([2H])([2H])[2H]` [Example 68, 2-((1H-pyrrolo[2,3-b]pyridin-5-yl)oxy)-4-(4-((2-(4-(2,6-difluoro-4-(2-hydroxypropan-2-yl-1,1,1,3,3,3-d6)phenyl)thiophen-2-yl)-4,4-dimethylcyclohex-1-en-1-yl)methyl)piperazin-1-yl)-N-((4-((((1r,4r)-4-hydroxy-4-methylcyclohexyl)methyl)amino)-3-nitrophenyl)sulfonyl)benzamide], the IC50 is 27.8 nM.

Regarding `CC1(C)CCC(CN2CCN(c3ccc(C(=O)NS(=O)(=O)c4ccc(NC[C@H]5CC[C@](C)(O)CC5)c([N+](=O)[O-])c4)c(Oc4cnc5[nH]ccc5c4)c3)CC2)=C(c2cc(-c3ccc(C(C)(C)C#N)cc3)cs2)C1` [Example 56, 2-((1H-pyrrolo[2,3-b]pyridin-5-yl)oxy)-4-(4-((2-(4-(4-(2-cyanopropan-2-yl)phenyl)thiophen-2-yl)-4,4-dimethylcyclohex-1-en-1-yl)methyl)piperazin-1-yl)-N-((4-((((1r,4r)-4-hydroxy-4-methylcyclohexyl)methyl)amino)-3-nitrophenyl)sulfonyl)benzamide], the IC50 came out at 27.6 nM.

For the compound `CC(C)(O)Cc1ccc(-c2csc(C3=C(CN4CCN(c5ccc(C(=O)NS(=O)(=O)c6ccc(NC[C@H]7CC[C@](C)(O)CC7)c([N+](=O)[O-])c6)c(Oc6cnc7[nH]ccc7c6)c5)CC4)CCC(C)(C)C3)c2)c(F)c1` [Example 73, 2-((1H-pyrrolo[2,3-b]pyridin-5-yl)oxy)-4-(4-((2-(4-(2-fluoro-4-(2-hydroxy-2-methylpropyl)phenyl)thiophen-2-yl)-4,4-dimethylcyclohex-1-en-1-yl)methyl)piperazin-1-yl)-N-((4-((((1r,4r)-4-hydroxy-4-methylcyclohexyl)methyl)amino)-3-nitrophenyl)sulfonyl)benzamide], the IC50 is 25.2 nM.

Take `CC1(C)CCC(CN2CCN(c3ccc(C(=O)NS(=O)(=O)c4ccc(NC[C@H]5CC[C@](C)(O)CC5)c([N+](=O)[O-])c4)c(Oc4cnc5[nH]ccc5c4)c3)CC2)=C(c2cc(-c3ccc(F)c(F)c3)cs2)C1` [Example 51, 2-((1H-pyrrolo[2,3-b]pyridin-5-yl)oxy)-4-(4-((2-(4-(3,4-difluorophenyl)thiophen-2-yl)-4,4-dimethylcyclohex-1-en-1-yl)methyl)piperazin-1-yl)-N-((4-((((1r,4r)-4-hydroxy-4-methylcyclohexyl)methyl)amino)-3-nitrophenyl)sulfonyl)benzamide]: the IC50 came out at 45.5 nM.

In the case of `CC1(C)CCC(CN2CCN(c3ccc(C(=O)NS(=O)(=O)c4ccc(NC[C@H]5CC[C@](C)(O)CC5)c([N+](=O)[O-])c4)c(Oc4cnc5[nH]ccc5c4)c3)CC2)=C(c2cc(-c3cc(F)cc(C#N)c3)cs2)C1` [Example 55, 2-((1H-pyrrolo[2,3-b]pyridin-5-yl)oxy)-4-(4-((2-(4-(3-cyano-5-fluorophenyl)thiophen-2-yl)-4,4-dimethylcyclohex-1-en-1-yl)methyl)piperazin-1-yl)-N-((4-((((1r,4r)-4-hydroxy-4-methylcyclohexyl)methyl)amino)-3-nitrophenyl)sulfonyl)benzamide], the IC50 was 47.5 nM.

For `CC1(C)CCC(CN2CCN(c3ccc(C(=O)NS(=O)(=O)c4ccc(NC[C@H]5CC[C@](C)(O)CC5)c([N+](=O)[O-])c4)c(Oc4cnc5[nH]ccc5c4)c3)CC2)=C(c2cc(-c3c(F)ccc(F)c3F)cs2)C1` [Example 54, 2-((1H-pyrrolo[2,3-b]pyridin-5-yl)oxy)-4-(4-((4,4-dimethyl-2-(4-(2,3,6-trifluorophenyl)thiophen-2-yl)cyclohex-1-en-1-yl)methyl)piperazin-1-yl)-N-((4-((((1r,4r)-4-hydroxy-4-methylcyclohexyl)methyl)amino)-3-nitrophenyl)sulfonyl)benzamide], the IC50 came to 33.2 nM.

For the compound `CC1(C)CCC(CN2CCN(c3ccc(C(=O)NS(=O)(=O)c4ccc(NC[C@H]5CC[C@](C)(O)CC5)c([N+](=O)[O-])c4)c(Oc4cnc5[nH]ccc5c4)c3)CC2)=C(c2cc(-c3cc(C(C)(C)O)ccc3F)cs2)C1` [Example 75, 2-((1H-pyrrolo[2,3-b]pyridin-5-yl)oxy)-4-(4-((2-(4-(2-fluoro-5-(2-hydroxypropan-2-yl)phenyl)thiophen-2-yl)-4,4-dimethylcyclohex-1-en-1-yl)methyl)piperazin-1-yl)-N-((4-((((1r,4r)-4-hydroxy-4-methylcyclohexyl)methyl)amino)-3-nitrophenyl)sulfonyl)benzamide], the IC50 was 34.3 nM.

Consider `CC(C)c1csc(C2=C(CN3CCN(c4ccc(C(=O)NS(=O)(=O)c5ccc(NCC6CCOCC6)c([N+](=O)[O-])c5)c(Oc5cnc6[nH]ccc6c5)c4)CC3)CCC(C)(C)C2)c1` [Example 8, 2-((1H-pyrrolo[2,3-b]pyridin-5-yl)oxy)-4-(4-((2-(4-isopropylthiophen-2-yl)-4,4-dimethylcyclohex-1-en-1-yl)methyl)piperazin-1-yl)-N-((3-nitro-4-(((tetrahydro-2H-pyran-4-yl)methyl)amino)phenyl)sulfonyl)benzamide], for which the IC50 is 30.9 nM.

On to `CC1(C)CCC(CN2CCN(c3ccc(C(=O)NS(=O)(=O)c4ccc(NC[C@H]5COCCO5)c([N+](=O)[O-])c4)c(Oc4cnc5[nH]ccc5c4)c3)CC2)=C(c2cc(-c3ccc(C(F)F)cc3)cs2)C1` [Example 48, (S)—N-((4-(((1,4-dioxan-2-yl)methyl)amino)-3-nitrophenyl)sulfonyl)-2-((1H-pyrrolo[2,3-b]pyridin-5-yl)oxy)-4-(4-((2-(4-(4-(difluoromethyl)phenyl)thiophen-2-yl)-4,4-dimethylcyclohex-1-en-1-yl)methyl)piperazin-1-yl)benzamide], for which the IC50 was found to be 36.7 nM.

As to `CC1(C)CCC(CN2CCN(c3ccc(C(=O)NS(=O)(=O)c4ccc(NC[C@H]5COCCO5)c([N+](=O)[O-])c4)c(Oc4cnc5[nH]ccc5c4)c3)CC2)=C(c2cc(-c3ccc(F)c(F)c3)cs2)C1` [Example 50, (S)—N-((4-(((1,4-dioxan-2-yl)methyl)amino)-3-nitrophenyl)sulfonyl)-2-((1H-pyrrolo[2,3-b]pyridin-5-yl)oxy)-4-(4-((2-(4-(3,4-difluorophenyl)thiophen-2-yl)-4,4-dimethylcyclohex-1-en-1-yl)methyl)piperazin-1-yl)benzamide], the IC50 was found to be 42.7 nM.

For `C[C@@H]1CN(Cc2csc(C3=C(CN4CCN(c5ccc(C(=O)NS(=O)(=O)c6ccc(NC[C@H]7COCCO7)c([N+](=O)[O-])c6)c(Oc6cnc7[nH]ccc7c6)c5)CC4)CCC(C)(C)C3)c2)C[C@H](C)N1C` [Example 29, N-((4-((((S)-1,4-dioxan-2-yl)methyl)amino)-3-nitrophenyl)sulfonyl)-2-((1H-pyrrolo[2,3-b]pyridin-5-yl)oxy)-4-(4-((4,4-dimethyl-2-(4-(((3S,5R)-3,4,5-trimethylpiperazin-1-yl)methyl)thiophen-2-yl)cyclohex-1-en-1-yl)methyl)piperazin-1-yl)benzamide], the IC50 turned out to be 71.3 nM.

These data come from patent US12577245B2, “Sulfonyl benzamide derivatives as Bcl-2 inhibitors” (ASCENTAGE PHARMA (SUZHOU) CO., LTD., priority 2021, dated 2026).
